Where two headings read alike, the source gives them in different places.
How the values were obtained:
[1] = system: L. infantum promastigotes; experiment: Leishmanicidal activity on promastigotes of clinical isolates of L. infantum; format: cell-based
From the text: (§1) The data represent the mean ± standard deviation of 3 independent experiments. ^b SI = selectivity index (EC50 THP-1 / EC50 parasite (amastigote form)). ^c not assayed. ^d Sensitivity data obtained in L. infantum LEM3049. ^eAmphotericin B. ^fMiltefosine.
(§2) ^aClinical isolates of L. infantum used: LEM 3049 as a reference line; LEM 3323, resistant to Sb^III; LEM 5159, resistant to miltefosine (MIL) and LEM 2126, resistant to MIL and paromomycin. Amphotericin B (AmB) was used as a reference drug. The data represent the mean ± standard deviation of 3 independent experiments.

[2] = system: L. infantum intracellular amastigotes; experiment: Leishmanicidal activity on intracellular amastigotes of clinical isolates of L. infantum; format: cell-based
From the text: as §1, §2

THP-1 cells [3] = system: THP-1 cells
[4] = system: L. donovani promastigotes; experiment: In vitro leishmanicidal activity, MTT colorimetric method, promastigotes; conditions: read-out: EC50 (µM) L. donovani promastigotes
[5] = system: L. donovani intracellular amastigotes; experiment: In vitro leishmanicidal activity, MTT colorimetric method, intracellular amastigotes; conditions: read-out: EC50 (µM) L. donovani intracellular amastigotes
[6] = system: T. brucei (strain s427 of T. b. brucei); experiment: In vitro trypanocidal activity, sensitive strain s427; format: cell-based; conditions: Trypanosoma brucei, read-out: EC50 (µM) T. brucei
T. brucei B48 = experiment: microbe, parasite or virus in culture; format: cell-based, T. b. brucei; parameters: RF: unit not given here; conditions: for EC50: Trypanosoma brucei, read-out: EC50 (µM) T. brucei B48
THP-1 cells [7] = experiment: cells; conditions: Homo sapiens, THP-1, read-out: EC50 (µM) THP-1 cells
[8] = human, liver microsomes
in vitro [9] = conditions: human, liver microsomes
in vitro [10] = conditions: human, liver S9 fraction
[11] = selectivity index (EC50 THP-1 / EC50 parasite (amastigote form)), L. donovani
[12] = strain HU3, mean ± standard deviation of 3 independent experiments
[13] = strain s427 of T. b. brucei, mean ± standard deviation of 3 independent experiments

C[C@@H]1[C@H](O)[C@@H](C)/C=C/C=C/C=C/C=C/C=C/C=C/C=C/[C@H](O[C@@H]2O[C@H](C)[C@@H](O)[C@H](N)[C@@H]2O)C[C@@H]2O[C@](O)(C[C@@H](O)C[C@@H](O)[C@H](O)CC[C@@H](O)C[C@@H](O)CC(=O)O[C@H]1C)C[C@H](O)[C@H]2C(=O)O [AmB, Amphotericin B]
EC50 ([1]; L. infantum LEM3049, reference line, read-out: EC50 (µM) Promastigotes): 0.06 ± 0.02 µM
EC50 ([1]; L. infantum LEM3323, resistant to SbIII, read-out: EC50 (µM) Promastigotes): 0.07 ± 0.03 µM
EC50 ([1]; L. infantum LEM5159, resistant to miltefosine, read-out: EC50 (µM) Promastigotes): 0.05 ± 0.01 µM
EC50 ([1]; L. infantum LLM2126, resistant to MIL and paromomycin, read-out: EC50 (µM) Promastigotes): 0.1 ± 0.02 µM
EC50 ([2]; L. infantum LEM3049, reference line, read-out: EC50 (µM) Intracellular amastigotes): 0.17 ± 0.02 µM
EC50 ([2]; L. infantum LEM3323, resistant to SbIII, read-out: EC50 (µM) Intracellular amastigotes): 0.18 ± 0.02 µM
EC50 ([2]; L. infantum LEM5159, resistant to miltefosine, read-out: EC50 (µM) Intracellular amastigotes): 0.16 ± 0.03 µM
EC50 ([2]; L. infantum LLM2126, resistant to MIL and paromomycin, read-out: EC50 (µM) Intracellular amastigotes): 0.16 ± 0.01 µM
EC50 (THP-1 cells [3]; read-out: EC50 (µM) THP-1 cells, human THP-1 cells, cytotoxicity): 27.9 µM
SI (THP-1 cells [3]; [11]): 116.0
EC50 [4, 12]: 0.13 ± 0.02 µM
EC50 [5, 12]: 0.24 µM

N=C(N)c1ccc(/N=N/Nc2ccc(C(=N)N)cc2)cc1 [Dimin, Diminazene]
EC50 [6]: 0.101 µM
EC50 (T. brucei B48): 1.33 ± 0.14 µM

CCCCCCCCCCCCCCCCOP(=O)([O-])OCC[N+](C)(C)C [MIL, Miltefosine]
SI (THP-1 cells [3]; [11]): 28.8
EC50 (THP-1 cells [7]): 26.2 ± 2.58 µM
EC50 ([4]; Leishmania donovani): 6.51 ± 0.35 µM
EC50 ([5]; Leishmania donovani): 0.91 ± 0.05 µM

N=C(N)c1ccc(OCCCCCOc2ccc(C(=N)N)cc2)cc1 [Pent, Pentamidine]
EC50 [6, 13]: 0.0033 ± 0.0006 µM
EC50 (T. brucei B48): 0.55 ± 0.03 µM

Cc1cc(O)ccc1C(=O)CCCCCCCCCCCCCCC[P+](c1ccccc1)(c1ccccc1)c1ccccc1.[Br-] [compound 2, (16-(4-hydroxy-2-methylphenyl)-16-oxohexadecyl)triphenylphosphonium bromide]
EC50 [6, 13]: 0.043 µM
RF (T. brucei B48): 1.01
EC50 (T. brucei B48): 0.044 µM
SI (THP-1 cells [3]): 24.5
EC50 (THP-1 cells [7]): 2.45 ± 0.41 µM
EC50 ([4]; Leishmania donovani): 0.09 ± 0.01 µM
EC50 ([5]; Leishmania donovani): 0.1 ± 0.01 µM

Cc1cc(O)ccc1C(=O)CCCCCCCCCCCCCCC[P+](c1ccccc1)(c1ccccc1)c1ccccn1.[Br-] [compound 3, (16-(4-hydroxy-2-methylphenyl)-16-oxohexadecyl)diphenyl(pyridin-2-yl)phosphonium bromide]
EC50 [6, 13]: 0.107 µM
RF (T. brucei B48): 0.90
EC50 (T. brucei B48): 0.096 µM
SI (THP-1 cells [3]): 21.1
EC50 (THP-1 cells [7]): 2.11 ± 0.12 µM
EC50 ([4]; Leishmania donovani): 0.28 ± 0.05 µM
EC50 ([5]; Leishmania donovani): 0.1 ± 0.02 µM

O=C(CCCCCCCCCCCCCCC[P+](c1cccc2ccccc12)(c1cccc2ccccc12)c1cccc2ccccc12)c1ccc(O)cc1O.[Br-] [compound 4, (16-(2,4-dihydroxyphenyl)-16-oxohexadecyl)tri(naphthalen-1-yl)phosphonium bromide]
EC50 ([1]; Leishmania infantum, footnote d: sensitivity data obtained in L. infantum LEM3049, read-out: EC50 (µM) L. donovani promastigotes): 3.54 ± 0.36 µM
EC50 ([2]; Leishmania infantum, footnote d: sensitivity data obtained in L. infantum LEM3049, read-out: EC50 (µM) L. donovani intracellular amastigotes): 1.25 ± 0.22 µM
SI (THP-1 cells [3]; selectivity index (EC50 THP-1 / EC50 parasite (amastigote form)), parasite data from L. infantum LEM3049): 10.3
EC50 (THP-1 cells [7]): 12.8 ± 2.3 µM

O=C(O)Cc1ccccc1Nc1c(Cl)cccc1Cl [diclofenac]
intrinsic clearance [8]: high
half-life (in vitro [9]): < 30 min
half-life (in vitro [10]): < 30 min

From patent EP3995502A1, “4-HYDROXYPHENYL PHOSPHONIUM SALTS WITH ANTI-PARASITIC PROPERTIES” (priority 2019, dated 2021)
